Data taken from patent US7585864B2, “Farnesyl protein transferase inhibitors and their use to treat cancer” (Schering Corporation, priority 2004, dated 2009).

What was measured:
[1] = biological target: purified human farnesyl protein transferase (Homo sapiens, UniProt P49354+P49356); assay: FPT IC50 Assay; assay type: biochemical; conditions: transfer of [3H] farnesyl to biotinylated H-ras peptide (biotin-CVLS), 37° C., 60 minutes
Experimental: FPT activity was determined by measuring the transfer of [^3H] farnesyl from [^3H] farnesyl pyrophosphate to a biotinylated peptide derived from the C-terminus of H-ras (biotin-CVLS). The reaction mixture contains: 50 mM Tris pH7.7, 5 mM MgCl2, 5 μM Zn^++, 5 mM DTT, 0.1% Triton-X, 0.05 μM peptide, 0.03 nM purified human farnesyl protein transferase, 0.180 μM [^3H] farnesyl pyrophosphate, plus the indicated concentration of tricyclic compound or vehicle control in a total volume of 100 μl. The reaction was incubated in a Vortemp shaking incubator at 37° C., 45 RPM for 60 minutes and stopped with 150 μl of 0.25 M EDTA containing 0.5% BSA and 1.3 mg/ml Streptavidin SPA beads. Radioactivity was measured in a Wallach 1450 Microbeta liquid scintillation counter. Percent inhibition was calculated relative to the vehicle control.

Human tumor cells = assay: Soft Agar Assay (anchorage-independent growth); assay type: cell-based; conditions: colony outgrowth in 0.3% agarose, 10-16 days, MTT staining
Experimental: Anchorage-independent growth is a characteristic of tumorigenic cell lines. Human tumor cells can be suspended in growth medium containing 0.3% agarose and an indicated concentration of a farnesyl transferase inhibitor. The solution can be overlayed onto growth medium solidified with 0.6% agarose containing the same concentration of farnesyl transferase inhibitor as the top layer. After the top layer is solidified, plates can be incubated for 10-16 days at 37° C. under 5% CO2 to allow colony outgrowth. After incubation, the colonies can be stained by overlaying the agar with a solution of MTT (3-[4,5-dimethyl-thiazol-2-yl]-2,5-diphenyltetrazolium bromide, Thiazolyl blue) (1 mg/mL in PBS). Colonies can be counted and the IC50's can be determined.

Structure (SMILES)	IC50 [1] [nM]	IC50 (Human tumor cells) [nM]
Cc1cn(CCCN(Cc2ccccc2)C(=O)[C@H]2CN([C@H]3c4ccc(Cl)cc4OCc4cccnc43)CCN2C(=O)OC(C)(C)C)cn1 [Example 1]	3	28
Cc1cn(C[C@@H]2CCCN(C(=O)[C@@H]3CN([C@H]4c5ccc(Cl)cc5OCc5cccnc54)CCN3C(=O)OC(C)(C)C)C2)cn1 [Example 4]	0.12	< 5
Cc1cn(C[C@@H]2CCCN(C(=O)[C@H]3CN([C@@H]4c5ccc(Cl)cc5OCc5cccnc54)CCN3C(=O)OC3CCCCC3)C2)cn1 [Example 11]	0.16	
